# Experimental data from patent publication US20240116985A1, “STAPLED PEPTIDES AND METHODS THEREOF” (priority 2020, published 2024).
# Read-outs that look alike come from different tables or passages of the source.
# Tests used:
# [1] = biological target: T1, full-length beta-Catenin (Uniprot ID P35222) (Homo sapiens, UniProt P35222); experiment: Fluorescence polarization IC50 (beta-catenin / 5FAM-TCF4 10-53 competition); type: binding; details: fluorescence polarization; read-out: beta-Catenin FP IC50
# T1 construct: 10 nM full-length beta-Catenin (Uniprot ID P35222)
# T1 sequence (P35222 1-781): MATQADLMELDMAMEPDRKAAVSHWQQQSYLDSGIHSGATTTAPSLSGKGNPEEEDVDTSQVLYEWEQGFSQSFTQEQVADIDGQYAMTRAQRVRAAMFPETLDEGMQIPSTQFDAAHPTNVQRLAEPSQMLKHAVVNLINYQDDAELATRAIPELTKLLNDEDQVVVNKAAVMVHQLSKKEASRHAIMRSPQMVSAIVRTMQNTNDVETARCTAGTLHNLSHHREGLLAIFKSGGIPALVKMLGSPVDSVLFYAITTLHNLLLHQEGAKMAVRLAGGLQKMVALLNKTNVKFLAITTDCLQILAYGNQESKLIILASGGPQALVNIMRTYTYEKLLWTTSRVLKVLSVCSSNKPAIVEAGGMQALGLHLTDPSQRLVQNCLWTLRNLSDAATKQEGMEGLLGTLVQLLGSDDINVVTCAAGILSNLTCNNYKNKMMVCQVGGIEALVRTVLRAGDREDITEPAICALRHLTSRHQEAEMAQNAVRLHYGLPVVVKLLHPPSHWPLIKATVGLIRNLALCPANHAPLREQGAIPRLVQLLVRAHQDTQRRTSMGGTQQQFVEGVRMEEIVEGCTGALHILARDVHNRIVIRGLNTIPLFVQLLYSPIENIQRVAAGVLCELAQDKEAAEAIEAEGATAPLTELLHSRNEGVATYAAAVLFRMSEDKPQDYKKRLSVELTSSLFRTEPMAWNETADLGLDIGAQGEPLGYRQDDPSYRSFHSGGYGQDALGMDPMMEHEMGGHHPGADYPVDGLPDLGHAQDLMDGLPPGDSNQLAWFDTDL
# [2] = biological target: T2, beta-catenin/TCF4 engagement (Homo sapiens, UniProt P35222); experiment: Nano-BRET target engagement assay (B-cat-Halo & TCF4-Luc in HEK293 cells); type: cell-based; details: read-out: NanoBRET Abs IC50
# T2 construct: expressed in transfected cells; host or cells: HEK293
# T2 sequence (P35222 1-781): T1 sequence (P35222 1-781)
Compound,IC50 [1] [nM],IC50 [2] [nM],IC50 ([2]; absolute IC50) [nM]
"CC(=O)N1CCC[C@]12CC=CCCCC1(CCCC=CCCCOC(=O)N3CC[C@@](C(=O)N[C@@H](Cc4ccsc4)C(=O)N[C@@H](Cc4csc5ccccc45)C(=O)N[C@@H](CC(N)=O)C(N)=O)(C3)NC(=O)[C@H](C)NC(=O)[C@H](Cc3ccccc3)NC(=O)[C@H](C)NC(=O)[C@H](C)NC(=O)[C@H](Cc3cccc(C(=O)O)c3)NC(=O)[C@H](CC(=O)O)NC1=O)NC(=O)[C@H](CC(C)(C)C)NC(=O)[C@H](CC(=O)O)NC2=O (stereo partly drawn) [I-2042, Ac-PL3-Asp-Npg-B5-Asp-3COOHF-Ala-Ala-Phe-Ala-PyrS2-3Thi-BztA-Asn-NH2]",9,10000,
"CC(=O)N1CCC[C@]12CC=CCCCC1(CCCC=CCCCOC(=O)N3CC[C@@](C(=O)N[C@@H](Cc4ccsc4)C(=O)N[C@@H](Cc4csc5ccccc45)C(=O)N[C@@H](Cc4ccccc4)C(N)=O)(C3)NC(=O)[C@H](CC(C)C)NC(=O)[C@H](Cc3ccccc3)NC(=O)[C@H](C)NC(=O)[C@H](CCCCNC(C)C)NC(=O)[C@H](Cc3cccc(C(=O)O)c3)NC(=O)[C@H](CC(=O)O)NC1=O)NC(=O)[C@H](CC(C)(C)C)NC(=O)[C@H](CC(=O)O)NC2=O (stereo partly drawn) [I-1909, Ac-PL3-Asp-Npg-B5-Asp-3COOHF-iPrLys-Ala-Phe-Leu-PyrS2-3Thi-BztA-Phe-NH2]",29,> 20000,
"CC(=O)N1CCC[C@]12CC=CCCCC1(CCCC=CCCCOC(=O)N3CC[C@@](C(=O)N[C@@H](Cc4ccccc4Cl)C(=O)N[C@@H](Cc4csc5ccccc45)C(=O)N[C@@H](CCCN4CCOCC4)C(N)=O)(C3)NC(=O)[C@H]([C@@H](C)O)NC(=O)[C@H](Cc3ccccc3)NC(=O)[C@H](C)NC(=O)[C@H](C)NC(=O)[C@H](CN(CC(=O)O)CC(F)(F)F)NC(=O)[C@H](CC(=O)O)NC1=O)NC(=O)[C@H](CC(C)(C)C)NC(=O)[C@H](CC(=O)O)NC2=O (stereo partly drawn) [I-1609, Ac-PL3-Asp-Npg-B5-Asp-TfeGA-Ala-Ala-Phe-Thr-PyrS2-2C1F-BztA-MorphNva-NH2]",15,,6700
"CC(=O)N1CCC[C@]12CC=CCCCC1(CCCC=CCCCOC(=O)N3CC[C@@](C(=O)N[C@@H](Cc4ccsc4)C(=O)N[C@@H](Cc4csc5ccccc45)C(=O)N[C@@H](CC(C)C)C(N)=O)(C3)NC(=O)[C@H](CC(C)C)NC(=O)[C@H](Cc3ccccc3)NC(=O)[C@H](C)NC(=O)[C@H](CCCCNC(C)C)NC(=O)[C@H](CN(CC(=O)O)CC(F)(F)F)NC(=O)[C@H](CC(=O)O)NC1=O)NC(=O)[C@H](CC(C)(C)C)NC(=O)[C@H](CC(=O)O)NC2=O (stereo partly drawn) [I-1759, Ac-PL3-Asp-Npg-B5-Asp-TfeGA-iPrLys-Ala-Phe-Leu-PyrS2-3Thi-BztA-Leu-NH2]",57,,> 20000
"CC(=O)N1CCC[C@]12CC=CCCCC1(CCCC=CCCCOC(=O)N3CC[C@@](C(=O)N[C@@H](Cc4ccccc4C(F)(F)F)C(=O)N[C@@H](Cc4csc5ccccc45)C(=O)N[C@@H](C)C(N)=O)(C3)NC(=O)[C@H](CC(C)C)NC(=O)[C@H](Cc3ccccc3)NC(=O)[C@H](C)NC(=O)[C@H](CCC(N)=O)NC(=O)[C@H](Cn3cc(C(C)(C)C(=O)O)nn3)NC(=O)[C@H](CC(=O)O)NC1=O)NC(=O)[C@H](CC(C)(C)C)NC(=O)[C@H](CC(=O)O)NC2=O (stereo partly drawn) [I-2369, Ac-PL3-Asp-Npg-B5-Asp-[CMe2CO2H]TriAzDap-Gln-Ala-Phe-Leu-PyrS2-2F3MeF-BztA-Ala-NH2]",14,,9500
"CC(=O)N1CCC[C@]12CC=CCCCC1(CCCC=CCCCOC(=O)N3CC[C@@](C(=O)N[C@@H](Cc4ccsc4)C(=O)N[C@@H](Cc4csc5ccccc45)C(=O)N[C@@H](CCC(=O)N4CCN(CC(F)(F)F)CC4)C(N)=O)(C3)NC(=O)[C@H](CC(C)C)NC(=O)[C@H](Cc3ccccc3)NC(=O)[C@H](C)NC(=O)[C@H](C)NC(=O)[C@H](CN(CC(=O)O)CC(F)(F)F)NC(=O)[C@H](CC(=O)O)NC1=O)NC(=O)[C@H](CC(C)(C)C)NC(=O)[C@H](CC(=O)O)NC2=O (stereo partly drawn) [I-1803, Ac-PL3-Asp-Npg-B5-Asp-TfeGA-Ala-Ala-Phe-Leu-PyrS2-3Thi-BztA-[TfePpz]GlnR-NH2]",20,,7400
"CC(=O)N1CCC[C@]12CCCCC1(CCCCCCCCOC(=O)N3CC[C@](C(=O)N[C@@H](Cc4ccsc4)C(=O)N[C@@H](Cc4csc5ccccc45)C(=O)N[C@@H](CCC(N)=O)C(N)=O)(C3)NC(=O)[C@H](CC(C)C)NC(=O)[C@H](Cc3ccccc3)NC(=O)[C@H](C)NC(=O)[C@H](C)NC(=O)[C@H](CC(=O)O)NC(=O)[C@H](CC(=O)O)NC1=O)NC(=O)[C@H](CC(C)(C)C)NC(=O)[C@H](CC(=O)O)NC2=O (stereo partly drawn) [I-2162, Ac-PL3-Asp-Npg-B3-Asp-Asp-Ala-Ala-Phe-Leu-PyrS4-3Thi-BztA-Gln-NH2]",1160,> 20000,
"CC(=O)N1CCC[C@]12CC=CCCCC1(CCCC=CCCCOC(=O)N3CC[C@@](C(=O)N[C@@H](Cc4ccsc4)C(=O)N[C@@H](Cc4csc5ccccc45)C(=O)N[C@H](CCC(N)=O)C(N)=O)(C3)NC(=O)[C@H](CC(C)C)NC(=O)[C@H](Cc3ccccc3)NC(=O)[C@H](C)NC(=O)[C@H](C)NC(=O)[C@H](CC(=O)O)NC(=O)[C@H](CC(=O)O)NC1=O)NC(=O)[C@H](CC(C)(C)C)NC(=O)[C@H](CC(=O)O)NC2=O (stereo partly drawn) [I-1500, Ac-PL3-Asp-Npg-B5-Asp-Asp-Ala-Ala-Phe-Leu-PyrS2-3Thi-BztA-dGln-NH2]",22,,4700
"CC(=O)N1CCC[C@]12CC=CCCCC1(CCCC=CCCCCCC[C@@](C)(C(=O)N[C@@H](Cc3ccsc3)C(=O)N[C@@H](Cc3csc4ccccc34)C(=O)N[C@@H](CCC(N)=O)C(N)=O)NC(=O)[C@H](CC(N)=O)NC(=O)[C@H](Cc3ccccc3)NC(=O)[C@H](C)NC(=O)[C@H](C)NC(=O)[C@H](CN(CC(=O)O)Cc3ccccc3)NC(=O)[C@H](CC(=O)O)NC1=O)NC(=O)[C@H](CC(C)(C)C)NC(=O)[C@H](CC(=O)O)NC2=O (stereo partly drawn) [I-1456, Ac-PL3-Asp-Npg-B5-Asp-[Bn]GA-Ala-Ala-Phe-Asn-S8-3Thi-BztA-Gln-NH2]",16,,23700
"CC(=O)N1CCC[C@]12CC=CCC1(CC=CCCCCCOC(=O)N3CC[C@](C(=O)N[C@@H](Cc4ccsc4)C(=O)N[C@@H](Cc4csc5ccccc45)C(=O)N[C@@H](CCC(N)=O)C(N)=O)(C3)NC(=O)[C@H](CC(C)C)NC(=O)[C@H](Cc3ccccc3)NC(=O)[C@H](C)NC(=O)[C@H](C)NC(=O)[C@H](CC(=O)O)NC(=O)[C@H](CC(=O)O)NC1=O)NC(=O)[C@H](CC(C)(C)C)NC(=O)[C@H](CC(=O)O)NC2=O (single isomer, unassigned) [I-2158, Ac-PL3-Asp-Npg-B3-Asp-Asp-Ala-Ala-Phe-Leu-PyrS4-3Thi-BztA-Gln-NH2]",213,> 20000,
"CC(=O)N1CCC[C@]12CC=CCCCC1(CCCC=CCCCOC(=O)N3CC[C@@](C(=O)N[C@@H](Cc4ccsc4)C(=O)N[C@@H](Cc4csc5ccccc45)C(=O)N[C@@H](CCC(N)=O)C(=O)N4CCC[C@H]4CO)(C3)NC(=O)[C@H](CC(C)C)NC(=O)[C@H](Cc3ccccc3)NC(=O)[C@H](C)NC(=O)[C@H](C)NC(=O)[C@H](CN(CC(=O)O)CC(F)(F)F)NC(=O)[C@H](CC(=O)O)NC1=O)NC(=O)[C@H](CC(C)(C)C)NC(=O)[C@H](CC(=O)O)NC2=O (stereo partly drawn) [I-1681, Ac-PL3-Asp-Npg-B5-Asp-TfeGA-Ala-Ala-Phe-Leu-PyrS2-3Thi-BztA-Gln-Proo1]",18.5,,5400
"CC[C@@H]1NC(=O)[C@H](Cc2ccccc2)NC(=O)[C@H](C)NC(=O)C(C)(C)NC(=O)[C@H](Cc2cccc(C(=O)O)c2)NC(=O)[C@H](CC(=O)O)NC(=O)C2(CCCC=CCCCOC(=O)N3CC[C@@](C(=O)N[C@@H](Cc4ccsc4)C(=O)N[C@@H](Cc4csc5ccccc45)C(=O)N[C@@H](CCC(=O)N4CCC(N5CCCCC5)CC4)C(N)=O)(C3)NC1=O)CCCC=CC[C@]1(CCCN1C(C)=O)C(=O)N[C@@H](CC(=O)O)C(=O)N[C@@H](CC(C)(C)C)C(=O)N2 (stereo partly drawn) [I-2560, Ac-PL3-Asp-Npg-B5-Asp-3COOHF-Aib-Ala-Phe-Abu-PyrS2-3Thi-BztA-[4Pippip]GlnR-NH2]",9,,19300
"CC(=O)N1CCC[C@]12CC=CCCCC1(CCCC=CCCCOC(=O)N3CC[C@@](C(=O)N[C@@H](Cc4ccccc4C(F)(F)F)C(=O)N[C@@H](Cc4csc5ccccc45)C(=O)N[C@@H](C)C(N)=O)(C3)NC(=O)[C@H](CC(C)C)NC(=O)[C@H](Cc3ccccc3)NC(=O)[C@@H](C)NC(=O)[C@H](C)NC(=O)[C@H](Cc3cccc(C(=O)O)c3)NC(=O)[C@H](CC(=O)O)NC1=O)NC(=O)[C@H](CC(C)(C)C)NC(=O)[C@H](CC(=O)O)NC2=O (stereo partly drawn) [I-2098, Ac-PL3-Asp-Npg-B5-Asp-3COOHF-Ala-dAla-Phe-Leu-PyrS2-2F3MeF-BztA-Ala-NH2]",260,> 20000,
